Assay [1] has as its system C57BL/6 mice. Nature of the assay: In vivo expression level of Luciferase-mRNA delivered by intravenous injection (bioluminescence imaging). As to conditions: mRNA-loaded nanoparticles, intravenous (tail vein), 5 μg Luciferase-mRNA, 6 hours; for Bioluminescence intensity / Fluorescence intensity of liver: compounds of Example 1; for Fluorescence intensity of spleen: compounds of Example 2. The procedure, abridged:
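Lipid nanoparticles carrying 5 μg Luciferase-mRNA given by tail-vein injection to 6-8-week-old C57BL/6 mice. At 6 h, 3 mg D-luciferin i.p. in PBS; bioluminescence imaged 10 min later as the expression read-out.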

The subject of assay [2] is C57BL/6 mice. Nature of the assay: In vivo expression level of Luciferase-mRNA delivered by intramuscular injection (bioluminescence imaging). The note with it: mRNA-loaded nanoparticles, intramuscular (leg muscle), 5 μg Luciferase-mRNA, 6 hours. On the procedure:
Luciferase-mRNA was used as an mRNA model; and the cationic lipid analogues of Examples 1-5 were used to prepare drug-loaded nanoparticles according to the method of Example 6.
100 μL of nanoparticles containing 5 μg Luciferase-mRNA or the drug-loaded nanoparticles prepared above were injected into the leg muscles of 6-8 week-old C57BL/6 mice, and 200 μL of 1×PBS solution containing 3 mg D-Luciferin potassium salt was intraperitoneally injected into the mice 6 hours later. After waiting for 10 minutes, an in vivo expression level of the mRNA was evaluated by bioluminescence imaging.

Each structure is given as a SMILES string.

`CCCCCCCC/C=C\CCCCCCCC(=O)N(CCN(C)C)C(C(=O)NCCCCCCCCCCCCCCCCCC)C(CC)CCCC` (centres unmarked) [A4I18R1C18-1] displayed a Bioluminescence intensity in the assay on C57BL/6 mice [1] of 1.39E+07. For the same compound, the Local fluorescence intensity with C57BL/6 mice [2] (compounds of Example 1) was 1.54E+07.

Turning to `CCCCC/C=C\C/C=C\CCCCCCCC(=O)N(CCN(C)C)C(C(=O)NCCCCCCCCCCCCCCCCCC)C(CC)CCCC` (centres unmarked) [A4I18R1C18-2], the “Fluorescence intensity of liver” value in the assay on C57BL/6 mice [1] was found to be 9.67E+06. In the assay with C57BL/6 mice [2] (compounds of Example 1), this compound registered a Local fluorescence intensity of 2.11E+07.

Regarding `CCCCCCCC/C=C\CCCCCCCC(=O)N(CCCN(C)C)C(C(=O)NCCCCCCCCCCCCCCCCCC)C(CC)CCCC` (centres unmarked) [A4I18R2C18-1], the Bioluminescence intensity with C57BL/6 mice [1] is given as 1.33E+07. The Local fluorescence intensity in the assay with C57BL/6 mice [2] (compounds of Example 1) is reported as 1.32E+07.

For `CCCCC/C=C\C/C=C\CCCCCCCC(=O)N(CCCN(C)C)C(C(=O)NCCCCCCCCCCCCCCCCCC)C(CC)CCCC` (centres unmarked) [A4I18R2C18-2], the Bioluminescence intensity in the assay with C57BL/6 mice [1] was determined as 2.06E+07. This compound had a Local fluorescence intensity with C57BL/6 mice [2] (compounds of Example 1) of 2.97E+07.

`CCCCCCCCCCCCCCCCCCNC(=O)C(C(CC)CCCC)N(CCCN(C)C)C(=O)CCCCCCCCCCCCCCCCC` (centres unmarked) [A4I18R2C18]: the “Fluorescence intensity of liver” value in the assay on C57BL/6 mice [1] came to 5.05E+05. In addition, the Local fluorescence intensity in the assay on C57BL/6 mice [2] (compounds of Example 1) amounted to 9.04E+05.

`CCCCCCCC/C=C\CCCCCCCC(=O)N(CCCN(CC)CC)C(C(=O)NCCCCCCCCCCCCCCCCCC)C(CC)CCCC` (centres unmarked) [A4I18R3C18-1] came in with a Bioluminescence intensity in the assay with C57BL/6 mice [1] of 1.39E+07. Moreover, the Local fluorescence intensity in the assay with C57BL/6 mice [2] (compounds of Example 1) turned out to be 1.77E+07.

As for `CCCCC/C=C\C/C=C\CCCCCCCC(=O)N(CCCN1CCOCC1)C(C(=O)NCCCCCCCCCCCCCCCCCC)C(CC)CCCC` (centres unmarked) [A4I18R5C18-2], the “Fluorescence intensity of liver” value in the assay with C57BL/6 mice [1] was determined as 8.34E+03. This compound also gave a Local fluorescence intensity in the assay on C57BL/6 mice [2] (compounds of Example 1) of 4.99E+05.

As for `CCCCCCCCCCCCCCCCCCNC(=O)C(C(CC)CCCC)N(CCCN1CCOCC1)C(=O)CCCCCCCCCCCCCCCCC` (centres unmarked) [A4I18R5C18], the “Fluorescence intensity of liver” value in the assay with C57BL/6 mice [1] was 2.68E+03. Moreover, the Local fluorescence intensity with C57BL/6 mice [2] (compounds of Example 1) stood at 4.33E+05.

Take `CCCCC/C=C\C/C=C\CCCCCCCC(=O)N(CCN1CCCCC1)C(C(=O)NCCCCCCCCCCCCCCCCCC)C(CC)CCCC` (centres unmarked) [A4I18R12C18-2]: in the assay with C57BL/6 mice [1], the “Fluorescence intensity of liver” value was found to be 9.22E+03. The compound also yielded a Local fluorescence intensity with C57BL/6 mice [2] (compounds of Example 1) of 2.60E+05.

Take `CCCCCCCCCCCCCCCCCCNC(=O)C(C(CC)CCCC)N(CCN1CCCCC1)C(=O)CCCCCCCCCCCCCCCCC` (centres unmarked) [A4I18R12C18]: the “Fluorescence intensity of liver” value in the assay on C57BL/6 mice [1] is given as 2.31E+03. In the assay on C57BL/6 mice [2] (compounds of Example 1), this compound yielded a Local fluorescence intensity of 1.75E+05.

With `CCCCCCCC/C=C\CCCCCCCC(=O)N(CCO)C(C(=O)NCCN(C)CCNC(=O)C(C1CCCCC1)N(CCO)C(=O)CCCCCCC/C=C\CCCCCCCC)C1CCCCC1` (centres unmarked) [A23I4R22C18-1], the “Fluorescence intensity of spleen” value in the assay with C57BL/6 mice [1] was 6.57E+05. The same compound had a Local fluorescence intensity in the assay on C57BL/6 mice [2] (compounds of Example 2) of 1.41E+05.

On to `CCCCC/C=C\C/C=C\CCCCCCCC(=O)N(CCO)C(C(=O)NCCN(C)CCNC(=O)C(C1CCCCC1)N(CCO)C(=O)CCCCCCC/C=C\C/C=C\CCCCC)C1CCCCC1` (centres unmarked) [A23I4R22C18-2], for which the “Fluorescence intensity of spleen” value in the assay on C57BL/6 mice [1] is listed as 6.10E+05. In addition, in the assay with C57BL/6 mice [2] (compounds of Example 2), the Local fluorescence intensity is listed as 9.09E+05.

Regarding `CCCCCCCCCCCCCCCCCC(=O)N(CCO)C(C(=O)NCCN(C)CCNC(=O)C(C1CCCCC1)N(CCO)C(=O)CCCCCCCCCCCCCCCCC)C1CCCCC1` (centres unmarked) [A23I4R22C18], the “Fluorescence intensity of spleen” value in the assay with C57BL/6 mice [1] stood at 4.61E+05. Moreover, the Local fluorescence intensity in the assay on C57BL/6 mice [2] (compounds of Example 2) is reported as 3.41E+04.

For `CCCCCCCC/C=C\CCCCCCCC(=O)N(CCOC)C(C(=O)NCCN(C)CCNC(=O)C(C1CCCCC1)N(CCOC)C(=O)CCCCCCC/C=C\CCCCCCCC)C1CCCCC1` (centres unmarked) [A23I4R23C18-1], the “Fluorescence intensity of spleen” value in the assay with C57BL/6 mice [1] is 2.96E+05. In addition, the Local fluorescence intensity in the assay on C57BL/6 mice [2] (compounds of Example 2) stood at 5.87E+06.

For `CCCCCCCCCCCCCCCCCC(=O)N(CCOC)C(C(=O)NCCN(C)CCNC(=O)C(C1CCCCC1)N(CCOC)C(=O)CCCCCCCCCCCCCCCCC)C1CCCCC1` (centres unmarked) [A23I4R23C18], in the assay on C57BL/6 mice [1], the “Fluorescence intensity of spleen” value is given as 1.49E+05. The Local fluorescence intensity in the assay on C57BL/6 mice [2] (compounds of Example 2) came to 5.32E+05.

For the compound `CCCCC/C=C\C/C=C\CCCCCCCC(=O)N(CCCN(C)C)C(C(=O)NCCCCCCCCCCCCCCCCCC)C1CCCCC1` (centres unmarked) [A23I18R2C18-2], the “Fluorescence intensity of liver” value in the assay with C57BL/6 mice [1] stood at 1.52E+06. For the same compound, in the assay on C57BL/6 mice [2] (compounds of Example 1), the Local fluorescence intensity is recorded as 7.16E+05.

(Values after patent US20250161216A1, “CATIONIC LIPID ANALOGUES, COMPOSITIONS AND USES THEREOF” (GUANGZHOU LIDE BIOMEDICINE TECHNOLOGY CO., LTD., priority 2022, published 2025).)
